Among the test systems are ACHN renal; 786-0 renal; HCC-2998 colon; SNB-19 CNS; OVCAR-8 ovarian; MCF7 breast; SK-MEL-28 melanoma; OVCAR-4 ovarian; OVCAR-5 ovarian; SW-620 colon; RXF 393 renal; HOP-92 NSCLC; U251 CNS; MDA-MB-231 breast; T-47D breast; IGROV1 ovarian; SF-295 CNS; K-562 leukemia; UACC-62 melanoma.
Holding throughout (assay): NCI tumour cell line growth inhibition, 48 h

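Each compound was tested at five concentrations against cells in 96-well plates for 48 hours. At the TGI there is no net growth.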

Take `CC(C)(C)O/C=C1/C(=O)OC2C[C@@H](O[Si](C)(C)C(C)(C)C)CC12` (some centres not stated): the TGI in the assay on ACHN renal, in the assay on 786-0 renal, in the assay with HCC-2998 colon, in the assay with SNB-19 CNS, in the assay with OVCAR-8 ovarian and in the assay on MCF7 breast was greater than 100 µM each time. Besides, the TGI with SK-MEL-28 melanoma was greater than 100 µM; with OVCAR-4 ovarian, greater than 100 µM; with OVCAR-5 ovarian, greater than 100 µM; in the assay with SW-620 colon, greater than 100 µM; in the assay with RXF 393 renal it was 73.3 µM; in the assay with HOP-92 NSCLC, greater than 100 µM. In addition, the TGI in the assay on U251 CNS, with MDA-MB-231 breast, with T-47D breast, with IGROV1 ovarian and in the assay with SF-295 CNS was greater than 100 µM in each case.

In the case of `N#C/C(=C\c1cn(Cc2ccccc2)c2ccccc12)c1nn(-c2ccccc2)c(N)c1C#N`, the TGI with K-562 leukemia is greater than 100 µM; with ACHN renal, 75.6 µM; with 786-0 renal, 21.3 µM; in the assay with SNB-19 CNS, 28.8 µM; with OVCAR-8 ovarian, 21.9 µM; in the assay with MCF7 breast it was greater than 100 µM. Besides, the TGI with SK-MEL-28 melanoma is greater than 100 µM; in the assay with OVCAR-4 ovarian, 13.7 µM; with OVCAR-5 ovarian it was 51.5 µM; in the assay with SW-620 colon, 36.3 µM; in the assay on RXF 393 renal, 19.2 µM; in the assay on HOP-92 NSCLC it was 27.2 µM. The TGI was found to be 26.5 µM in the assay on U251 CNS; 14.2 µM in the assay on MDA-MB-231 breast; 23.6 µM with UACC-62 melanoma; 23.3 µM in the assay on T-47D breast; 30.7 µM with IGROV1 ovarian; 26.4 µM in the assay with SF-295 CNS.

Consider `COC(=O)c1c(O)ccc2c1c1c(n2Cc2ccccc2)C(=O)c2ccccc2C1=O`, for which the TGI in the assay on K-562 leukemia came to 36.3 µM; in the assay with ACHN renal, 25.3 µM; with 786-0 renal, 32.1 µM; with HCC-2998 colon, 17.9 µM; in the assay on SNB-19 CNS, 28.7 µM; in the assay on OVCAR-8 ovarian, 26.2 µM. The TGI with MCF7 breast turned out to be 35 µM; in the assay on SK-MEL-28 melanoma, 31.7 µM; in the assay on OVCAR-4 ovarian, 24.3 µM; in the assay with OVCAR-5 ovarian it was 39.2 µM; in the assay on SW-620 colon, 46 µM; with RXF 393 renal, 37 µM. For the same compound, the TGI was 27.1 µM in the assay on HOP-92 NSCLC; 29.2 µM with U251 CNS; 32.2 µM in the assay on MDA-MB-231 breast; 42.1 µM in the assay with T-47D breast; 25.8 µM in the assay with IGROV1 ovarian; 36.3 µM with SF-295 CNS.

Consider `COc1cc(S(=O)(=O)Nc2nc(-c3ccc(N4C(=O)CSC4c4cccs4)cc3)cs2)ccc1Cl` (configuration not stated), for which the TGI in the assay on K-562 leukemia, in the assay on ACHN renal, in the assay on 786-0 renal, in the assay on SNB-19 CNS, in the assay on OVCAR-8 ovarian and in the assay on MCF7 breast was greater than 100 µM in each case. Besides, the TGI is greater than 100 µM in the assay on SK-MEL-28 melanoma; 97.7 µM in the assay with OVCAR-4 ovarian; greater than 100 µM in the assay with OVCAR-5 ovarian; greater than 100 µM in the assay on SW-620 colon; 55.9 µM with RXF 393 renal; greater than 100 µM in the assay on HOP-92 NSCLC. The TGI in the assay on U251 CNS, in the assay with MDA-MB-231 breast, with UACC-62 melanoma, in the assay with T-47D breast, with IGROV1 ovarian and with SF-295 CNS was greater than 100 µM throughout.

Turning to `O=C1CC(=O)NC(=NN2C(=O)/C(=C/C(=O)c3ccco3)N=C2c2ccccc2)N1`, the TGI in the assay on ACHN renal, in the assay with 786-0 renal, in the assay on HCC-2998 colon, with OVCAR-8 ovarian, with MCF7 breast and in the assay with SK-MEL-28 melanoma was greater than 100 µM each time. Further, the TGI in the assay on OVCAR-4 ovarian, in the assay on OVCAR-5 ovarian, in the assay on SW-620 colon, in the assay on RXF 393 renal, in the assay with HOP-92 NSCLC and with U251 CNS was greater than 100 µM throughout. In addition, the TGI with MDA-MB-231 breast, in the assay with UACC-62 melanoma, in the assay with T-47D breast, in the assay on IGROV1 ovarian and in the assay with SF-295 CNS was greater than 100 µM in each case.

`CSc1nc(C)c2c(n1)SCC2`: the TGI with K-562 leukemia, with ACHN renal, with 786-0 renal, in the assay with SNB-19 CNS, with OVCAR-8 ovarian and in the assay with MCF7 breast was greater than 10 µM each time. Also, the TGI with SK-MEL-28 melanoma, with OVCAR-4 ovarian, in the assay on OVCAR-5 ovarian, in the assay with SW-620 colon, in the assay on RXF 393 renal and in the assay with HOP-92 NSCLC was greater than 10 µM each time. In addition, the TGI with U251 CNS, in the assay on MDA-MB-231 breast, with UACC-62 melanoma, in the assay on T-47D breast, with IGROV1 ovarian and in the assay on SF-295 CNS was greater than 10 µM each time.

With `CCN(CC)C1Oc2cc3c(cc2C(c2ccc(OC)cc2)C1C)OCO3` (configuration not stated), the TGI is 45.9 µM with K-562 leukemia; 59.6 µM with ACHN renal; 48 µM with 786-0 renal; 35.3 µM with HCC-2998 colon; 83.7 µM with SNB-19 CNS; 44.9 µM with OVCAR-8 ovarian. The TGI in the assay with MCF7 breast is 47.7 µM; in the assay on SK-MEL-28 melanoma, 50.8 µM; in the assay on OVCAR-5 ovarian it was 58.9 µM; in the assay on SW-620 colon, greater than 100 µM; in the assay on RXF 393 renal it was 40.6 µM; in the assay on HOP-92 NSCLC, 57.9 µM. In addition, the TGI came to 54.9 µM in the assay on U251 CNS; 49.2 µM in the assay with MDA-MB-231 breast; 42.1 µM in the assay on UACC-62 melanoma; 77 µM in the assay with T-47D breast; 86.9 µM in the assay on IGROV1 ovarian; 63.1 µM in the assay on SF-295 CNS.

For `Cc1ccc(-n2cnc3c(N)nc(N)nc32)cc1`, the TGI in the assay on ACHN renal, in the assay on 786-0 renal, in the assay on HCC-2998 colon, in the assay on SNB-19 CNS, in the assay with OVCAR-8 ovarian and with MCF7 breast was greater than 100 µM each time. The TGI in the assay with SK-MEL-28 melanoma, in the assay with OVCAR-4 ovarian, with OVCAR-5 ovarian, in the assay with SW-620 colon, in the assay on RXF 393 renal and in the assay with HOP-92 NSCLC was greater than 100 µM in each case. For the same compound, the TGI in the assay on U251 CNS, in the assay on MDA-MB-231 breast, in the assay with UACC-62 melanoma, in the assay on T-47D breast, with IGROV1 ovarian and with SF-295 CNS was greater than 100 µM throughout.

Source of the values: PubChem BioAssay (NCI).
